Results from US9833423B2 (KOREA RESEARCH INSTITUTE OF CHEMICAL TECHNOLOGY, priority 2011, dated 2017).
≈ marks a conversion by molar mass, not a printed value. Like-named read-outs stand apart in the source and are kept apart here.

Experiments:
Coxsackie-virus B1 = assay: Cytopathic effect (CPE) inhibition assay; type: cell-based, Coxsackievirus B1; details: Enterovirus B, HeLa37, 48 h, HeLa, 37° C., 2 days
in vitro = details: human
Coxsackie-virus B3 = assay: Cytopathic effect (CPE) inhibition assay; type: cell-based, Coxsackievirus B3; details: Enterovirus B, HeLa37, 48 h; Table 4; HeLa, 37° C., 2 days; read-out: Coxsackie-virus B3 EC50
[1] = Table 4, read-out: Coxsackie-virus B1 EC50
[2] = Table 3, read-out: EC50 Coxsackie-virus B1

Structure (SMILES) | EC50 (Coxsackie-virus B1; [1]) | CC50 (in vitro; Picorna-virus CC50) | EC50 (Coxsackie-virus B3) | melting point | EC50 (Coxsackie-virus B1; [2]) | CC50 (in vitro; CC50)
COC(=O)Oc1cc(C(C)C)ccc1C1(NC(C)=O)C(=O)c2ccccc2C1=O [Example 92, 2-(2-Acetamido-1,3-dioxo-2,3-dihydro-1H-inden-2-yl)-5-isopropylphenyl methyl carbonate] | < 0.01 µg/mL | 43.6 µg/mL (≈ 110 µM) | < 0.01 µg/mL | – | – | –
CC(C)c1ccc(C2(OC(=O)c3ccccc3)C(=O)c3ccccc3C2=O)c(O)c1 [Example 23, 2-(2-Hydroxy-4-isopropylphenyl)-1,3-dioxo-2,3-dihydro-1H-inden-2-yl benzoate] | – | – | – | 117 to 119 °C | < 0.01 µg/mL | 44.3 µg/mL (≈ 111 µM)
CCC(=O)Nc1cc(C)c(C)cc1C1(O)C(=O)c2ccccc2C1=O [Example 87, N-(2-(2-Hydroxy-1,3-dioxo-2,3-dihydro-1H-inden-2-yl)-4,5-dimethylphenyl)propionamide] | 0.019 µg/mL (≈ 0.0563 µM) | 8.31 µg/mL (≈ 24.6 µM) | – | – | – | –
CC(C)C(=O)NC1(c2ccc(C(C)C)cc2OC(=O)C(C)C)C(=O)c2ccccc2C1=O [Example 50, 2-(2-Isobutylamido-1,3-dioxo-2,3-dihydro-1H-inden-2-yl)-5-isopropylphenyl isobutyrate] | – | – | – | – | 0.0112 µg/mL (≈ 0.0257 µM) | 44.3 µg/mL (≈ 102 µM)
CCCCCCCC(=O)NC1(c2ccc(C(C)C)cc2OC(=O)CCCCCCC)C(=O)c2cccc(N)c2C1=O (stereo not shown) [Example 91, 2-(4-Amino-2-octanamido-1,3-dioxo-2,3-dihydro-1H-inden-2-yl)-5-isopropylphenyl octanoate] | 0.015 µg/mL (≈ 0.0267 µM) | 40 µg/mL (≈ 71.1 µM) | – | – | – | –
CCCCCCC(=O)NC1(c2ccc(C(C)C)cc2OC(=O)CCCCCC)C(=O)c2ccccc2C1=O [Example 79, Heptanoic acid 2-(2-heptanoylamino-1,3-dioxo-indan-2-yl)-5-isopropyl-phenyl ester] | < 0.01 µg/mL | 8.94 µg/mL (≈ 17.2 µM) | < 0.01 µg/mL | – | – | –
COc1cc(C(C)C)ccc1C1(NC(C)=O)C(=O)c2ccccc2C1=O [Example 54, N-(2-(4-Isopropyl-2-methoxyphenyl)-1,3-dioxo-2,3-dihydro-1H-inden-2-yl)acetamide] | – | – | – | 222 to 224 °C | 0.0198 µg/mL (≈ 0.0563 µM) | > 117 µg/mL
COc1cc(C(C)C)ccc1C1(Br)C(=O)c2cccc(NC(C)=O)c2C1=O (stereo not shown) [Example 65, N-(2-Bromo-2-(4-isopropyl-2-methoxyphenyl)-1,3-dioxo-2,3-dihydro-1H-inden-4-yl)acetamide] | – | – | – | 143 to 145 °C | – | 11.2 µg/mL (≈ 25.9 µM)
COc1cc(C(C)C)ccc1C1(N)C(=O)c2ccccc2C1=O [Example 53, 2-Amino-2-(4-isopropyl-2-methoxyphenyl)-2H-inden-1,3-dione] | – | – | – | 164 to 166 °C | – | 10.2 µg/mL (≈ 33 µM)
COc1cc(C(C)C)ccc1C1(N=[N+]=[N-])C(=O)c2ccccc2C1=O [Example 52, 2-Azido-2-(4-isopropyl-2-methoxyphenyl)-2H-inden-1,3-dione] | – | – | – | 175 to 177 °C | – | 27.7 µg/mL (≈ 82.5 µM)
COC(=O)NC1(c2ccc(C(C)C)cc2OC)C(=O)c2ccccc2C1=O [Example 59, Methyl 2-(4-isopropyl-2-methoxyphenyl)-1,3-dioxo-2,3-dihydro-1H-inden-2-ylcarbamate] | – | – | – | 153 to 155 °C | – | 53.7 µg/mL (≈ 146 µM)
CC(C)c1ccc(C2(O)C(=O)c3ccccc3C2=O)c(OC(=O)/C=C/c2ccccc2)c1 [Example 30, 2-(2-Hydroxy-1,3-dioxo-2,3-dihydro-1H-inden-2-yl)-5-isopropylphenyl cinnamate] | – | – | – | 95 to 97 °C | < 0.01 µg/mL | > 100 µg/mL
C=CC(=O)Oc1cc(C(C)C)ccc1C1(OC(=O)C=C)C(=O)c2ccccc2C1=O [Example 32, 2-(2-(Acryloyloxy)-1,3-dioxo-2,3-dihydro-1H-inden-2-yl)-5-isopropylphenyl acrylate] | – | – | – | – | < 0.01 µg/mL | 28.7 µg/mL (≈ 70.9 µM)
CC(C)c1ccc(C2(O)C(=O)c3ccccc3C2=O)c(OCc2ccccc2)c1 [Example 24, 2-(2-Benzyloxy-4-isopropyl-phenyl)-2-hydroxy-indan-1,3-dione] | – | – | – | 197 to 199 °C | – | > 100 µg/mL
CC(=O)Oc1cc(C(C)(C)C)ccc1C1(OC(C)=O)C(=O)c2ccccc2C1=O [Example 15, 2-(2-Acetoxy-1,3-dioxo-2,3-dihydro-1H-inden-2-yl)-5-tert-butylphenyl acetate] | – | – | – | 119 to 120 °C | 0.015 µg/mL | 8.26 µg/mL
COc1cc(C(C)C)ccc1C1(O)C(=O)c2c(NC(C)=O)ccc([N+](=O)[O-])c2C1=O (stereo not shown) [Example 42, N-(2-Hydroxy-2-(4-isopropyl-2-methoxyphenyl)-7-nitro-1,3-dioxo-2,3-dihydro-1H-inden-4-yl)acetamide] | – | – | – | 110 to 115 °C | – | 71.1 µg/mL (≈ 172 µM)
CC(=O)Oc1c(Cl)cc(Cl)cc1C1(OC(C)=O)C(=O)c2ccccc2C1=O [Example 5, 2-(2-Acetoxy-1,3-dioxo-2,3-dihydro-1H-inden-2-yl)-4,6-dichlorophenyl acetate] | – | – | – | 178 to 180 °C | – | 26 µg/mL

Structure (SMILES) | EC50 (Coxsackie-virus B1; [1]) | CC50 (in vitro; Picorna-virus CC50) | EC50 (Coxsackie-virus B3) | melting point | EC50 (Coxsackie-virus B1; [2]) | CC50 (in vitro; CC50)
COc1cc(C(C)C)ccc1C1(NC(=O)C2CC2)C(=O)c2ccccc2C1=O [Example 56, N-(2-(4-Isopropyl-2-methoxyphenyl)-1,3-dioxo-2,3-dihydro-1H-inden-2-yl) cyclopropancarboxamide] | – | – | – | 145 to 147 °C | – | 87.8 µg/mL (≈ 233 µM)
COc1ccc2c(c1)C(=O)C(OC(C)=O)(c1ccc(C(C)C)cc1OC(C)=O)C2=O (stereo not shown) [Example 27, 2-(2-Acetoxy-4-isopropylphenyl)-5-methoxy-1,3-dioxo-2,3-dihydro-1H-inden-2-yl acetate] | – | – | – | 146 to 148 °C | – | 9.5 µg/mL
CCC(=O)Oc1cc(C(C)C)ccc1C1(OC(=O)CC)C(=O)c2ccccc2C1=O [Example 21, 2-(1,3-Dioxo-2-(propionyloxy)-2,3-dihydro-1H-inden-2-yl)-5-isopropylphenyl propionate] | – | – | – | 123 to 125 °C | < 0.01 µg/mL | 16 µg/mL (≈ 39.2 µM)
CC(=O)Oc1ccc(-c2ccccc2)cc1C1(OC(C)=O)C(=O)c2ccccc2C1=O [Example 10, 3-(2-Acetoxy-1,3-dioxo-2,3-dihydro-1H-inden-2-yl)biphenyl-4-yl acetate] | – | – | – | 196 to 198 °C | – | 7.85 µg/mL
COc1cc(C(C)C)ccc1C1(O)C(=O)c2ccc(N)c(NC(C)=O)c2C1=O (stereo not shown) [Example 45, N-(5-Amino-2-hydroxy-2-(4-isopropyl-2-methoxyphenyl)-1,3-dioxo-2,3-dihydro-1H-inden-4-yl)acetamide] | – | – | – | 124 to 131 °C | – | > 117 µg/mL
CCNC(=O)NC1(c2ccc(C(C)C)cc2OC)C(=O)c2ccccc2C1=O [Example 60, 1-Ethyl-3-(2,3-dihydro-2-(4-isopropyl-2-methoxyphenyl)-1,3-dioxo-1H-inden-2-yl)urea] | – | – | – | 267 to 269 °C | – | 68.9 µg/mL (≈ 181 µM)
CCCc1ccc(OC(C)=O)c(C2(OC(C)=O)C(=O)c3ccccc3C2=O)c1 [Example 11, 2-(2-Acetoxy-1,3-dioxo-2,3-dihydro-1H-inden-2-yl)-4-propylphenyl acetate] | – | – | – | 108 to 111 °C | – | 8.42 µg/mL
CC(=O)Oc1cc(C)cc(C2(OC(C)=O)C(=O)c3ccccc3C2=O)c1OC(C)=O [Example 18, Acetic acid 2-(2,3-diacetoxy-5-methyl-phenyl)-1,3-dioxo-indan-2-yl ester] | – | – | – | 192 to 194 °C | – | > 100 µg/mL
CC(=O)Oc1cc(-c2ccccc2)ccc1C1(OC(C)=O)C(=O)c2ccccc2C1=O [Example 8, 4-(2-Acetoxy-1,3-dioxo-2,3-dihydro-1H-inden-2-yl)biphenyl-3-yl acetate] | – | – | – | 165 to 167 °C | – | 7.91 µg/mL
CCN(CC)C(=O)Oc1cc(C(C)C)ccc1C1(O)C(=O)c2ccccc2C1=O [Example 34, 2-(2-Hydroxy-1,3-dioxo-2,3-dihydro-1H-inden-2-yl)-5-isopropylphenyl diethylcarbamate] | – | – | – | 103 to 106 °C | – | 46.2 µg/mL (≈ 117 µM)
CC(C)c1ccc(C2(OC(=O)C(C)(C)C)C(=O)c3ccccc3C2=O)c(OC(=O)C(C)(C)C)c1 [Example 29, 2-(1,3-Dioxo-2-(pivaloyloxy)-2,3-dihydro-1H-inden-2-yl)-5-isopropylphenyl pivalate] | – | – | – | 121 to 124 °C | – | > 100 µg/mL
CCc1ccc(OC(C)=O)c(C2(OC(C)=O)C(=O)c3ccccc3C2=O)c1 [Example 12, 2-(2-Acetoxy-1,3-dioxo-2,3-dihydro-1H-inden-2-yl)-4-ethylphenyl acetate] | – | – | – | 153 to 154 °C | – | 74.1 µg/mL
COC1(c2ccc(C(C)C)cc2O)C(=O)c2ccccc2C1=O [Example 28, 2-(2-Hydroxy-4-isopropylphenyl)-2-methoxy-1H-inden-1,3(2H)-dione] | – | – | – | 272 to 274 °C | – | 9.2 µg/mL (≈ 29.6 µM)
CC(=O)Oc1cc(C(C)C)ccc1C1(OC(C)=O)C(=O)c2cccc([N+](=O)[O-])c2C1=O (stereo not shown) [Example 37, Acetic acid 2-(2-acetoxy-4-isopropyl-phenyl)-4-nitro-1,3-dioxo-indan-2-yl ester] | – | – | – | 94 to 98 °C | – | 62.7 µg/mL (≈ 147 µM)
CC(=O)Oc1ccc(C(C)(C)C)cc1C1(OC(C)=O)C(=O)c2ccccc2C1=O [Example 14, 2-(2-Acetoxy-1,3-dioxo-2,3-dihydro-1H-inden-2-yl)-4-tert-butylphenyl acetate] | – | – | – | 195 to 196 °C | – | 8.26 µg/mL
CCCC(=O)Oc1cc(C(C)C)ccc1C1(OC(=O)CCC)C(=O)c2ccccc2C1=O [Example 22, 2-(2-(Butyryloxy)-1,3-dioxo-2,3-dihydro-1H-inden-2-yl)-5-isopropylphenyl butyrate] | – | – | – | 98 to 102 °C | < 0.01 µg/mL | 33.8 µg/mL (≈ 77.4 µM)
COc1cc(C(C)C)ccc1C1(NC(=O)c2ccccc2)C(=O)c2ccccc2C1=O [Example 55, N-(2-(4-Isopropyl-2-methoxyphenyl)-1,3-dioxo-2,3-dihydro-1H-inden-2-yl)benzamide] | – | – | – | 106 to 108 °C | – | > 117 µg/mL
